Measurements as given in US11149036B2, “3-(1H-pyrazol-4-yl)pyridine allosteric modulators of the M4 muscarinic acetylcholine receptor” (Merck Sharp & Dohme Corp., priority 2017, dated 2021).

Target: T1, human M4 muscarinic acetylcholine receptor (Homo sapiens, UniProt P08173)
T1 construct: expressed in transfected cells; host or cells: CHO-K1
T1 sequence (P08173 1-479): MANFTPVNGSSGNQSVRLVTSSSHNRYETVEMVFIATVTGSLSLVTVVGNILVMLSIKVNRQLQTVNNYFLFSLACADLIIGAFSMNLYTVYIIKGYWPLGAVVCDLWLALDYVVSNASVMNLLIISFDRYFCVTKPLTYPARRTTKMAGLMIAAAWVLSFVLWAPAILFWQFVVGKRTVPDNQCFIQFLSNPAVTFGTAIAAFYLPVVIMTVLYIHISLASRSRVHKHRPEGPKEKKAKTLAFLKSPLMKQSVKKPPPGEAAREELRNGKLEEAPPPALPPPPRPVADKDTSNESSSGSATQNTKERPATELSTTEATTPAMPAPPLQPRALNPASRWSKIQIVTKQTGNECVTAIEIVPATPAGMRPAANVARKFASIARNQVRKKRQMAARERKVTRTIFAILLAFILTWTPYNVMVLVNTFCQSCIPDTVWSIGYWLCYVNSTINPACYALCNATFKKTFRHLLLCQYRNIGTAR
Experiment: human FLIPR-based M4 PAM assay (CHO-K1 cells with human M4 receptor and Gaqi5, calcium dye fluorescence)
Type: cell-based
Details: inflection point (IP) of dose response curve, acetylcholine added at 20% of maximum response, read-out: M4 FLIPPR Hu IP
Procedure, shortened: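 CHO-K1 cells stably expressing human M4 with chimeric Gaqi5, calcium-dye loaded ~1 h at 37° C; compound added at increasing concentrations 4 min before acetylcholine at an EC20 concentration (sometimes a further EC70 addition).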

SMILES	EC50
Cc1nc(-c2cnc3c(c2)ncn3C)c(-c2cnn(CC3(C)CCCC3)c2)cc1C#N [Example 106, 2-methyl-6-(3-methyl-3H-imidazo[4,5-b]pyridin-6-yl)-5-(1-((1-methylcyclopentyl)methyl)-1H-pyrazol-4-yl)nicotinonitrile]	82 nM
Cn1cnc2cc(-c3nccc(F)c3-c3cnn(CC4(C)CCCC4)c3)cnc21 [Example 107, 6-(4-fluoro-3-(1-((1-methylcyclopentyl)methyl)-1H-pyrazol-4-yl)pyridin-2-yl)-3-methyl-3H-imidazo[4,5-b] pyridine]	36 nM
Cn1cnc2cc(-c3ncc(Cl)cc3-c3cnn(CC4(C)CCCC4)c3)cnc21 [Example 109, 6-(5-chloro-3-(1-((1-methylcyclopentyl)methyl)-1H-pyrazol-4-yl)pyridin-2-yl)-3-methyl-3H-imidazo[4,5-b] pyridine]	69 nM
Cc1cnc(-c2ccn3ccnc3c2)c(-c2cnn(CC3(C)CCCC3)c2)c1 [Example 112, 7-(5-methyl-3-(1-((1-methylcyclopentyl)methyl)-1H-pyrazol-4-yl)pyridin-2-yl)imidazo[1,2-a] pyridine]	46 nM
Cc1cnc(-c2ccn3ncnc3c2)c(-c2cnn(CC3(C)CCCC3)c2)c1 [Example 113, 7-(5-methyl-3-(1-((1-methylcyclopentyl)methyl)-1H-pyrazol-4-yl)pyridin-2-yl)-[1,2,4]triazolo[1,5-a] pyridine]	79 nM
COc1nc(-c2ccn3cc(C)nc3c2)c(-c2cnn(CC3(F)CCCC3)c2)cc1F [Example 114, 7-(5-fluoro-3-(1-((1-fluorocyclopentyl)methyl)-1H-pyrazol-4-yl)-6-methoxypyridin-2-yl)-2-methylimidazo[1,2-a]pyridine]	140 nM
Cc1cn2ccc(-c3nc(Cl)ccc3-c3cnn(CC4(C)CCCC4)c3)cc2n1 [Example 115, 7-(6-chloro-3-(1-((1-methylcyclopentyl)methyl)-1H-pyrazol-4-yl)pyridin-2-yl)-2-methylimidazo[1,2-a] pyridine]	21 nM
Cc1cc(-c2cnn(CC3(F)CCCC3)c2)c(-c2cnc3c(c2)ncn3C)nc1Cl [Example 117, 6-(6-chloro-3-(1-((1-fluorocyclopentyl)methyl)-1H-pyrazol-4-yl)-5-methylpyridin-2-yl)-3-methyl-3H-imidazo[4,5-b]pyridine]	45 nM
COc1cc2ccc(-c3nc(Cl)c(C)cc3-c3cnn(CC4(C)CCCC4)c3)cc2nn1 [Example 119, 7-(6-chloro-5-methyl-3-(1-((1-methylcyclopentyl)methyl)-1H-pyrazol-4-yl)pyridin-2-yl)-3-methoxycinnoline]	5 nM
Cn1cnc2cc(-c3nc(C(F)F)ccc3-c3cnn(C[C@H]4CC[C@H](F)C4)c3)ccc21 [Example 120, 5-(6-(difluoromethyl)-3-(1-(((1S,3S)-3-fluorocyclopentyl)methyl)-1H-pyrazol-4-yl)pyridin-2-yl)-1-methyl-1H-benzo[d] imidazole]	44 nM
Cn1cnc2cc(-c3nc(C(F)F)ccc3-c3cnn(C[C@@H]4CC[C@@H](F)C4)c3)ccc21 [Example 121, 5-(6-(difluoromethyl)-3-(1-(((1R,3R)-3-fluorocyclopentyl)methyl)-1H-pyrazol-4-yl)pyridin-2-yl)-1-methyl-1H-benzo[d] imidazole]	50 nM
COc1cc2ccc(-c3nc(C(F)F)ccc3-c3cnn(C[C@@H]4CC[C@@H](F)C4)c3)cc2nn1 [Example 122, 7-(6-(difluoromethyl)-3-(1-(((1R,3R)-3-fluorocyclopentyl)methyl)-1H-pyrazol-4-yl)pyridin-2-yl)-3-methoxycinnoline]	59 nM
COc1cc2ccc(-c3nc(C(F)F)ccc3-c3cnn(C[C@H]4CC[C@H](F)C4)c3)cc2nn1 [Example 123, 7-(6-(difluoromethyl)-3-(1-(((1S,3S)-3-fluorocyclopentyl)methyl)-1H-pyrazol-4-yl)pyridin-2-yl)-3-methoxy-cinnoline]	63 nM
Cn1nnc2cc(-c3nc(C#N)ccc3-c3cnn(CC4(C)CCCC4)c3)ccc21 [Example 124, 6-(1-methyl-1H-benzo[d][1,2,3]triazol-5-yl)-5-(1-((1-methylcyclopentyl)methyl)-1H-pyrazol-4-yl)picolinonitrile]	27 nM
Cn1nc2ccc(-c3nc(C#N)ccc3-c3cnn(CC4(C)CCCC4)c3)cc2n1 [Example 125, 6-(2-methyl-2H-benzo[d][1,2,3]triazol-5-yl)-5-(1-((1-methylcyclopentyl)methyl)-1H-pyrazol-4-yl)picolinonitrile]	76 nM
CC1(Cn2cc(-c3ccc(C#N)nc3-c3ccc4ccc(Cl)nc4c3)cn2)CCCC1 [Example 126, 6-(2-chloro-quinolin-7-yl)-5-(1-((1-methylcyclo-pentyl)methyl)-1H-pyrazol-4-yl)picolinonitrile]	78 nM
CC1(Cn2cc(-c3ccc(C#N)nc3-c3ccc4cc(Cl)nnc4c3)cn2)CCCC1 [Example 127, 6-(3-chlorocinnolin-7-yl)-5-(1-((1-methylcyclopentyl)methyl)-1H-pyrazol-4-yl)picolinonitrile]	26 nM
CC1(Cn2cc(-c3ccc(C#N)nc3-c3ccc4cc(F)nnc4c3)cn2)CCCC1 [Example 128, 6-(3-fluorocinnolin-7-yl)-5-(1-((1-methylcyclopentyl)methyl)-1H-pyrazol-4-yl)picolinonitrile]	35 nM
CC1(Cn2cc(-c3cc(F)c(F)nc3-c3ccn4ccnc4c3)cn2)CCCC1 [Example 137, 7-(5,6-difluoro-3-(1-((1-methylcyclopentyl)methyl)-1H-pyrazol-4-yl)pyridin-2-yl)imidazo[1,2-a]pyridine]	21 nM
Cc1nc2cc(-c3nc(C#N)c(C)cc3-c3cnn(CC4(F)CCCC4)c3)ccn2n1 [Example 141, 5-(1-((1-fluorocyclopentyl)methyl)-1H-pyrazol-4-yl)-3-methyl-6-(2-methyl-[1,2,4]triazolo[1,5-a]pyridin-7-yl)picolinonitrile]	50 nM
Cc1cc(-c2cnn(CC3(F)CCCC3)c2)c(-c2cnc3c(c2)ncn3C)nc1C#N [Example 142, 5-(1-((1-fluorocyclopentyl)methyl)-1H-pyrazol-4-yl)-3-methyl-6-(3-methyl-3H-imidazo[4,5-b]pyridin-6-yl)picolinonitrile]	104 nM
CC1(Cn2ncc(-c3ccc(C#N)nc3-c3ccn4ccnc4c3)c2C#N)CCCC1 [Example 144, 5-(5-cyano-1-((1-methylcyclopentyl)methyl)-1H-pyrazol-4-yl)-6-(imidazo[1,2-a]pyridin-7-yl)picolinonitrile]	54 nM

Continued, values first:

EC50	SMILES
86 nM	Cn1cnc2cc(-c3nc(C(F)F)ccc3-c3cnn(CC4(F)CCCC4)c3)cnc21 [Example 108, 6-(6-(difluoromethyl)-3-(1-((1-fluorocyclopentyl)methyl)-1H-pyrazol-4-yl)pyridin-2-yl)-3-methyl-3H-imidazo[4,5-b] pyridine]
23 nM	Cc1cn2ccc(-c3ncc(Cl)cc3-c3cnn(CC4(F)CCCC4)c3)cc2n1 [Example 110, 7-(5-chloro-3-(1-((1-fluorocyclopentyl)methyl)-1H-pyrazol-4-yl)pyridin-2-yl)-2-methylimidazo[1,2-a] pyridine]
38 nM	FC(F)c1cn2ccc(-c3ncc(Cl)cc3-c3cnn(CC4(F)CCCC4)c3)cc2n1 [Example 111, 7-(5-chloro-3-(1-((1-fluorocyclopentyl)methyl)-1H-pyrazol-4-yl)pyridin-2-yl)-2-(difluoromethyl)imidazo [1,2-a]pyridine]
61 nM	Cc1cc(-c2cnn(CC3(F)CCCC3)c2)c(-c2cnc3c(c2)C(=O)N(CC2CC2)C3)nc1Cl [Example 116, 3-(6-chloro-3-(1-((1-fluorocyclopentyl)methyl)-1H-pyrazol-4-yl)-5-methylpyridin-2-yl)-6-(cyclopropylmethyl)-6,7-dihydro-5H-pyrrolo [3,4-b]pyridin-5-one]
48 nM	Cc1cc(-c2cnn(CC3(F)CCCC3)c2)c(-c2ccn3cnnc3c2)nc1Cl [Example 118, 7-(6-chloro-3-(1-((1-fluorocyclopentyl)methyl)-1H-pyrazol-4-yl)-5-methylpyridin-2-yl)-[1,2,4]triazolo[4,3-a]pyridine]
24 nM	N#Cc1ccc(-c2cnn(CC3(F)CCCC3)c2)c(-c2ccn3cc(CF)nc3c2)n1 [Example 135, 5-(1-((1-fluorocyclopentyl)methyl)-1H-pyrazol-4-yl)-6-(2-(fluoromethyl)imidazo[1,2-a]pyridin-7-yl)picolinonitrile]
17 nM	O=C1c2cc(-c3ncccc3-c3cnn(CC4(F)CCCC4)c3)ccc2CN1C1CCC1 [Example 139, 2-cyclobutyl-6-(3-(1-((1-fluorocyclopentyl)methyl)-1H-pyrazol-4-yl)pyridin-2-yl)isoindolin-1-one]
68 nM	O=C1c2cc(-c3ncccc3-c3cnn(CC4(F)CCCC4)c3)ccc2CN1CC1CCC1 [Example 140, 2-(cyclobutylmethyl)-6-(3-(1-((1-fluorocyclopentyl)methyl)-1H-pyrazol-4-yl)pyridin-2-yl)isoindolin-1-one]
71 nM	Cc1cc(-c2cnn(CC3(F)CCCC3)c2)c(-c2ccn3ncnc3c2)nc1C#N [Example 143, 6-([1,2,4]triazolo[1,5-a]pyridin-7-yl)-5-(1-((1-fluorocyclopentyl)methyl)-1H-pyrazol-4-yl)-3-methylpicolinonitrile]
